{"source": "patent US20240190860A1", "about": "“8-CYCLO-SUBSTITUTED QUINAZOLINE DERIVATIVES AS LPA RECEPTOR 2 INHIBITORS” (CHIESI FARMACEUTICI S.p.A., priority 2021, published 2024)"}
{"biological_target": "T1, human recombinant LPA2 expressed in CHO cells (Homo sapiens, UniProt Q9HBW0)", "T1 construct": "expressed in transfected cells; host or cells: CHO cells (CHO-hLPA2 cell line)", "T1 sequence (Q9HBW0 whole entry)": "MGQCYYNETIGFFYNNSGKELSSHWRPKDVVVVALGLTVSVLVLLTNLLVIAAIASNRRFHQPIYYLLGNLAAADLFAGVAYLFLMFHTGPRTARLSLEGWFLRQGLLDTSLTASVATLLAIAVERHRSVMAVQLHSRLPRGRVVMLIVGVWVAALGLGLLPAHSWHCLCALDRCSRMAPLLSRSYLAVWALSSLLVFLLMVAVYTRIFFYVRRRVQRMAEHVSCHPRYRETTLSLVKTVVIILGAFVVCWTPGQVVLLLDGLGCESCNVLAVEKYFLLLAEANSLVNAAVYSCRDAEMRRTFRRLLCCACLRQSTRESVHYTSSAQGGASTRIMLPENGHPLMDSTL", "assay": "FLIPR calcium mobilization assay, LPA2 antagonism in CHO-hLPA2 cells", "format": "cell-based", "conditions": "CHO-hLPA2 cells, inhibition of LPA EC80 Ca2+ response, 30 min pre-incubation; read-out: LPA2 IC50", "how_it_was_run": "(§1)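 CHO cells stably expressing human LPA2, loaded 30 min at 37° C with 5 μM Cal-520 AM plus 2.5 mM probenecid in HEPES buffer pH 7.4, then preincubated 30 min with antagonist (11-point series, 0.5% DMSO final). Challenged with LPA at EC80; baseline-subtracted peak FLIPR fluorescence converted to % inhibition and pIC50 by four-parameter logistic fit.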", "units": {"IC50": "nM"}}
{"smiles": "Cc1nc(C)c(-c2cccc3c(N[C@@H](C)CN4CCN(S(=O)(=O)c5ccc6[nH]c(=O)sc6c5)CC4)ncnc23)s1", "note": "[Example 98, 6-({4-[(2S)-2-{[8-(2,4-dimethyl-1,3-thiazol-5-yl)quinazolin-4-yl]amino}propyl]piperazin-1-yl}sulfonyl)-2,3-dihydro-1,3-benzothiazol-2-one]", "IC50": "< 10"}
{"smiles": "C[C@@H](CN1CCN(S(=O)(=O)c2ccc3[nH]c(=O)sc3c2)CC1)Nc1ncnc2c(-c3ccc(F)c(CN(C)C)c3)cccc12", "note": "[Example 97, 6-({4-[(2S)-2-[(8-{3-[(dimethylamino)methyl]-4-fluorophenyl}quinazolin-4-yl)amino]propyl]piperazin-1-yl}sulfonyl)-2,3-dihydro-1,3-benzothiazol-2-one]", "IC50": "< 10"}
{"smiles": "C[C@@H](CN1CCN(S(=O)(=O)c2ccc3[nH]c(=O)sc3c2)CC1)Nc1ncnc2c(-c3cccc(CN(C)C)c3)cccc12", "note": "[Example 45, 6-({4-[(2S)-2-[(8-{3-[(dimethylamino)methyl]phenyl}quinazolin-4-yl)amino]propyl]piperazin-1-yl}sulfonyl)-2,3-dihydro-1,3-benzothiazol-2-one]", "IC50": "< 10"}
{"smiles": "Cc1cc(-c2ccc(S(=O)(=O)N3CCN(CCNc4ncnc5c(-c6cccnc6)cccc45)CC3)s2)on1", "note": "[Example 19, N-[2-(4-{[5-(3-methyl-1,2-oxazol-5-yl)thiophen-2-yl]sulfonyl}piperazin-1-yl)ethyl]-8-(pyridin-3-yl)quinazolin-4-amine]", "IC50": "< 1000"}
{"smiles": "COC(=O)Nc1nc(C)c(S(=O)(=O)N2CCN(C[C@H](C)Nc3ncnc4c(-c5cccc(CN(C)C)c5)cccc34)CC2)s1", "note": "[Example 21, methyl N-[5-({4-[(2S)-2-[(8-{3-[(dimethylamino)methyl]phenyl}quinazolin-4-yl)amino]propyl]piperazin-1-yl}sulfonyl)-4-methyl-1,3-thiazol-2-yl]carbamate]", "IC50": "< 10"}
{"smiles": "COC(=O)Nc1ncc(S(=O)(=O)N2CCN(C[C@H](C)Nc3ncnc4c(-c5cccnc5)cccc34)CC2)s1", "note": "[Example 47, methyl N-[5-({4-[(2S)-2-{[8-(pyridin-3-yl)quinazolin-4-yl]amino}propyl]piperazin-1-yl}sulfonyl)-1,3-thiazol-2-yl]carbamate]", "IC50": "< 10"}
{"smiles": "CC(=O)N1CCc2cc(S(=O)(=O)N3CCN(C[C@H](C)Nc4ncnc5c(-c6cccnc6)cccc45)CC3)ccc21", "note": "[Example 43, 1-[5-({4-[(2S)-2-{[8-(pyridin-3-yl)quinazolin-4-yl]amino}propyl]piperazin-1-yl}sulfonyl)-2,3-dihydro-1H-indol-1-yl]ethan-1-one]", "IC50": "< 10"}
{"smiles": "COC(=O)Nc1nc(C)c(S(=O)(=O)N2CCN(C[C@H](C)Nc3ncnc4c(-c5ccc(C)c(CN(C)C)c5)cccc34)CC2)s1", "note": "[Example 91, methyl N-[5-({4-[(2S)-2-[(8-{3-[(dimethylamino)methyl]-4-methylphenyl}quinazolin-4-yl)amino]propyl]piperazin-1-yl}sulfonyl)-4-methyl-1,3-thiazol-2-yl]carbamate]", "IC50": "< 10"}
{"smiles": "COC(=O)Nc1nc(C)c(S(=O)(=O)N2CCN(C[C@H](C)Nc3ncnc4c(-c5cc(C)ncn5)cccc34)CC2)s1", "note": "[Example 95, methyl N-[4-methyl-5-({4-[(2S)-2-{[8-(6-methylpyrimidin-4-yl)quinazolin-4-yl]amino}propyl]piperazin-1-yl}sulfonyl)-1,3-thiazol-2-yl]carbamate]", "IC50": "10 to 100"}
{"smiles": "COC(=O)Nc1nc(C)c(S(=O)(=O)N2CCN(C[C@H](C)Nc3ncnc4c(-c5ccccn5)cccc34)CC2)s1", "note": "[Example 29, methyl N-[4-methyl-5-({4-[(2S)-2-{[8-(pyridin-2-yl)quinazolin-4-yl]amino}propyl]piperazin-1-yl}sulfonyl)-1,3-thiazol-2-yl]carbamate]", "IC50": "< 10"}
{"smiles": "C[C@@H](CN1CCN(S(=O)(=O)c2cccnc2)CC1)Nc1ncnc2c(-c3cn(C)nc3C(F)(F)F)cccc12", "note": "[Example 104, 8-[1-methyl-3-(trifluoromethyl)-1H-pyrazol-4-yl]-N-[(2S)-1-[4-(pyridine-3-sulfonyl)piperazin-1-yl]propan-2-yl]quinazolin-4-amine]", "IC50": "10 to 100"}
{"smiles": "C[C@@H](CN1CCN(S(=O)(=O)c2ccc(Cl)c(Cl)c2)CC1)Nc1ncnc2c(-c3cccnc3)cccc12", "note": "[Example 31, N-[(2S)-1-[4-(3,4-dichlorobenzenesulfonyl)piperazin-1-yl]propan-2-yl]-8-(pyridin-3-yl)quinazolin-4-amine]", "IC50": "< 10"}
{"smiles": "C[C@@H](CN1CCN(S(=O)(=O)c2ccc3c(c2)CC(=O)N3)CC1)Nc1ncnc2c(-c3cccnc3)cccc12", "note": "[Example 66, 5-({4-[(2S)-2-{[8-(pyridin-3-yl)quinazolin-4-yl]amino}propyl]piperazin-1-yl}sulfonyl)-2,3-dihydro-1H-indol-2-one]", "IC50": "10 to 100"}
{"smiles": "Cc1cc(-c2ccc(S(=O)(=O)N3CCN(C[C@H](C)Nc4ncnc5c(-c6ccncc6)cccc45)CC3)s2)on1", "note": "[Example 8, N-[(2S)-1-(4-{[5-(3-methyl-1,2-oxazol-5-yl)thiophen-2-yl]sulfonyl}piperazin-1-yl)propan-2-yl]-8-(pyridin-4-yl)quinazolin-4-amine]", "IC50": "< 10"}
{"smiles": "Cc1nc2ccc(S(=O)(=O)N3CCN(C[C@H](C)Nc4ncnc5c(-c6cccc(CN(C)C)c6)cccc45)CC3)cc2s1", "note": "[Example 84, 8-{3-[(dimethylamino)methyl]phenyl}-N-[(2S)-1-{4-[(2-methyl-1,3-benzothiazol-6-yl)sulfonyl]piperazin-1-yl}propan-2-yl]quinazolin-4-amine]", "IC50": "< 10"}
{"smiles": "COC(=O)Nc1nc(C)c(S(=O)(=O)N2CCN(C[C@H](C)Nc3ncnc4c(-c5cnn(CCN(C)C)c5)cccc34)CC2)s1", "note": "[Example 58, methyl N-[5-({4-[(2S)-2-[(8-{1-[2-(dimethylamino)ethyl]-1H-pyrazol-4-yl}quinazolin-4-yl)amino]propyl]piperazin-1-yl}sulfonyl)-4-methyl-1,3-thiazol-2-yl]carbamate]", "IC50": "< 10"}
{"smiles": "COC(=O)Nc1nc(C)c(S(=O)(=O)N2CCN(C[C@H](C)Nc3ncnc4c(-c5ccnc(C#N)n5)cccc34)CC2)s1", "note": "[Example 73, methyl N-[5-({4-[(2S)-2-{[8-(2-cyanopyrimidin-4-yl)quinazolin-4-yl]amino}propyl]piperazin-1-yl}sulfonyl)-4-methyl-1,3-thiazol-2-yl]carbamate]", "IC50": "10 to 100"}
{"smiles": "Cc1cc(-c2ccc(S(=O)(=O)N3CCN(C[C@H](C)Nc4ncnc5c(-c6sc(C)nc6C)cccc45)CC3)s2)on1", "note": "[Example 7, 8-(2,4-dimethyl-1,3-thiazol-5-yl)-N-[(2S)-1-(4-{[5-(3-methyl-1,2-oxazol-5-yl)thiophen-2-yl]sulfonyl}piperazin-1-yl)propan-2-yl]quinazolin-4-amine]", "IC50": "< 10"}
{"smiles": "COC(=O)Nc1nc(C)c(S(=O)(=O)N2CCN(C[C@H](C)Nc3ncnc4c(-c5cccc(CN6CCN(C)CC6)c5)cccc34)CC2)s1", "note": "[Example 24, methyl N-[4-methyl-5-({4-[(2S)-2-[(8-{3-[(4-methylpiperazin-1-yl)methyl]phenyl}quinazolin-4-yl)amino]propyl]piperazin-1-yl}sulfonyl)-1,3-thiazol-2-yl]carbamate]", "IC50": "< 10"}
{"smiles": "COC(=O)Nc1nc(C)c(S(=O)(=O)N2CCN(C[C@H](C)Nc3ncnc4c(-c5ccc(N6CCN(C)CC6)cc5)cccc34)CC2)s1", "note": "[Example 36, methyl N-[4-methyl-5-({4-[(2S)-2-({8-[4-(4-methylpiperazin-1-yl)phenyl]quinazolin-4-yl}amino)propyl]piperazin-1-yl}sulfonyl)-1,3-thiazol-2-yl]carbamate]", "IC50": "< 10"}
{"smiles": "COC(=O)Nc1nc(C)c(S(=O)(=O)N2CCN(C[C@H](C)Nc3ncnc4c(-c5c[nH]nc5C(F)(F)F)cccc34)CC2)s1", "note": "[Example 82, methyl N-[4-methyl-5-({4-[(2S)-2-({8-[3-(trifluoromethyl)-1H-pyrazol-4-yl]quinazolin-4-yl}amino)propyl]piperazin-1-yl}sulfonyl)-1,3-thiazol-2-yl]carbamate]", "IC50": "< 10"}
{"smiles": "Cc1nc(NCCN(C)C)sc1S(=O)(=O)N1CCN(C[C@H](C)Nc2ncnc3c(-c4c(C)n[nH]c4C)cccc23)CC1", "note": "[Example 39, 8-(3,5-dimethyl-1H-pyrazol-4-yl)-N-[(2S)-1-{4-[(2-{[2-(dimethylamino)ethyl]amino}-4-methyl-1,3-thiazol-5-yl)sulfonyl]piperazin-1-yl}propan-2-yl]quinazolin-4-amine]", "IC50": "10 to 100"}
{"smiles": "COC(=O)Nc1nc(C)c(S(=O)(=O)N2CCN(C[C@H](C)Nc3ncnc4c(-c5cncc(CN(C)C)c5)cccc34)CC2)s1", "note": "[Example 55, methyl N-[5-({4-[(2S)-2-[(8-{5-[(dimethylamino)methyl]pyridin-3-yl}quinazolin-4-yl)amino]propyl]piperazin-1-yl}sulfonyl)-4-methyl-1,3-thiazol-2-yl]carbamate]", "IC50": "< 10"}
{"smiles": "Cc1nc(NC(=O)CN(C)C)sc1S(=O)(=O)N1CCN(C[C@H](C)Nc2ncnc3c(-c4cn(C)nc4C(F)(F)F)cccc23)CC1", "note": "[Example 86, 2-(dimethylamino)-N-[4-methyl-5-({4-[(2S)-2-({8-[1-methyl-3-(trifluoromethyl)-1H-pyrazol-4-yl]quinazolin-4-yl}amino)propyl]piperazin-1-yl}sulfonyl)-1,3-thiazol-2-yl]acetamide]", "IC50": "< 10"}
{"biological_target": "T1, human recombinant LPA2 expressed in CHO cells", "assay": "FLIPR calcium mobilization assay, LPA2 antagonism in CHO-hLPA2 cells", "format": "cell-based", "conditions": "comparative compound, same in vitro assay; stated inactive on receptor LPA2; read-out: IC50 on LPA2 receptor", "how_it_was_run": "as §1", "units": {"IC50": "nM"}}
{"smiles": "COC(=O)Nc1nc(C)c(S(=O)(=O)N2CCN(C[C@H](C)Nc3ncnc4ncccc34)CC2)s1", "note": "[comparative Example A, Methyl (S)-(4-methyl-5-((4-(2-(pyrido[2,3-d]pyrimidin-4 ylamino)propyl)piperazin-1-yl)sulfonyl)thiazol-2-yl)carbamate, reference compound]", "IC50": "> 3000"}
